Measured values as given in patent US11541030B2, “Methods for the treatment of inflammation associated with infection” (NOXOPHARM LIMITED, priority 2020, dated 2023).

Tests used:
[1] = tested on: TC-1 cells (cGAS-STING); assay: CPT-induced IL-6 in TC-1 cells; details: TC-1, 0.5 μM CPT 48 hours; H151 1.8 μM, IDX 2.5 μM
Method: FIG. 7: Mouse TC-1 cells were plated in the presence of 0.5 μM CPT for 48 hours, with the following compounds, where indicated: H151 (1.8 μM), IDX (2.5 μM). IL-6 levels were determined by ELISA. Data shown are averaged from 2 (for H151) or 3 independent experiments (conducted with biological replicate), ±standard deviation (SD). […] Each point represents the mean data for each independent experiment; the column represents the mean of the experiments. *, P≤0.05; **, P≤0.01; ***, P≤0.001; ****, P≤0.0001, ns: non-significant.
Cell culture and reagents.
Murine IP-10 production and IL-6 in supernatant of iBMMs and TC-1 was quantified using Mouse CXCL10/IP-10/CRG-2 Duo Set ELISA (R&D systems, #Dy466) and the IL6 OptE1A ELISA Kit mouse (BD Bioscience, #555240), respectively, according to the manufacturer's protocol. Similarly, human IP-10, TNF-α and IL-6 production was measured in cell supernatants using human IP-10 OptEIA ELISA kit (BD Biosciences, #555157), human OptEIA TNF-α kit (BD Bioscience, #555212) and human IL-6 OptEIA ELISA Set (BD Biosciences, #555220). Tetramethylbenzidine substrate (ThermoFisher Scientific) was used for quantification of the cytokines on a Fluostar OPTIMA (BMG LABTECH) plate-reader.

[2] = tested on: TLR4 (LPS); assay: LPS-induced IL-6 in hTERT immortalised foreskin fibroblasts; type: cell-based, human; details: 2.5 uM IDX or H151 pre-treatment, 7 h LPS (100 ng/ml)
Method: (§1) IL-6 levels were measured in the supernatants by ELISA.
(§2) To determine the specificity of IDX on STING signalling, human hTERT immortalised foreskin fibroblasts which have functional TLR4 (LPS) and TLR3 (PolyI:C) responsiveness were tested. […] (FIG. 6).

[3] = tested on: TLR3 (PolyI:C); assay: PolyI:C-induced IL-6 in hTERT immortalised foreskin fibroblasts; type: cell-based, human; details: 2.5 uM IDX or H151 pre-treatment, 7 h polyI:C (20 ug/ml)
Method: as §1, §2

[4] = molecular target: T1, mouse STING (Mus musculus, UniProt Q3TBT3); assay: DMXAA-induced ISRE-luciferase in L929 cells; details: 2.5 uM IDX; DMXAA up to 100 ug/ml
T1 sequence (Q3TBT3 1-378): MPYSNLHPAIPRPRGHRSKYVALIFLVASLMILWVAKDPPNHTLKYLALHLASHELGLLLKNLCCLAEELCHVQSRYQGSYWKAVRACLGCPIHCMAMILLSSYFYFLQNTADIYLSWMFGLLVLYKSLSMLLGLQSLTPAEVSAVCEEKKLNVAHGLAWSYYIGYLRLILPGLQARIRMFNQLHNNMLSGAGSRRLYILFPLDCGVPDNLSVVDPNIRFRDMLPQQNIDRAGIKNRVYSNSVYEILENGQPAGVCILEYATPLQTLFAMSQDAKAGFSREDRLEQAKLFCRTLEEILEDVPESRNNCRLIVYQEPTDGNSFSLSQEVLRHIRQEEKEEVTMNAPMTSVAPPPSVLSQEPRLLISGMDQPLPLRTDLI
Method: FIG. 2: Mouse L929 cells stably expressing an IFN-stimulated responsive element (ISRE)-luciferase reporter were pre-treated for 1 h with indicated doses of IDX, prior an 8 h stimulation with 20 ug/ml DMXAA. Cells were lysed and firefly luciferase was quantified at the end of the experiment. Data shown are averaged from 2 independent experiments in biological triplicate, relative to DMXAA and DMSO only condition control (±SEM).
Luciferase assays were carried out at 8 hours. Data were normalised to DMSO+DMXAA only condition, and are shown as averages from 3 independent experiments (conducted with biological replicate), ±SD. Each point represents the mean data for each independent experiment; the column represents the mean of the experiments.
To determine whether IDX could inhibit STING signalling more directly, mouse L929 cells stably expressing an IFN-stimulated-responsive luciferase (ISRE-Luc) were pretreated with IDX at various doses for 1 h, prior to DMXAA stimulation for 8 h (FIG. 2).
Using mouse L929 cells stably expressing an interferon (IFN)-stimulated responsive element (ISRE)-Luciferase construct referred to as LL171 cells (2) and stimulated with the murine STING agonist DMXAA, the inventors speculated that the DMXAA-induced IFN-β production and downstream ISRE-Luciferase expression would only be minimally impacted by IDX if it selectively acted on NF-κB signalling.

[5] = tested on: human hTERT fibroblasts; assay: Cell proliferation of hTERT fibroblasts; type: cell-based; details: 10 μM IDX, 72 hours
[6] = Fresh versus frozen DMSO stock comparison; type: physicochemical; details: 40 mM stock in DMSO kept frozen at −20C
[7] = molecular target: T2, human STING (Homo sapiens, UniProt Q86WV6, G230A/H232R/R293Q/R71H); assay: STING agonist-driven IP-10 and IFNβ in THP-1 cells; type: cell-based; details: THP-1, 2.5 uM IDX 1 hour
T2 construct: endogenous in cells; host or cells: human THP-1 cells
T2 sequence (Q86WV6 whole entry R71H/G230A/H232R/R293Q): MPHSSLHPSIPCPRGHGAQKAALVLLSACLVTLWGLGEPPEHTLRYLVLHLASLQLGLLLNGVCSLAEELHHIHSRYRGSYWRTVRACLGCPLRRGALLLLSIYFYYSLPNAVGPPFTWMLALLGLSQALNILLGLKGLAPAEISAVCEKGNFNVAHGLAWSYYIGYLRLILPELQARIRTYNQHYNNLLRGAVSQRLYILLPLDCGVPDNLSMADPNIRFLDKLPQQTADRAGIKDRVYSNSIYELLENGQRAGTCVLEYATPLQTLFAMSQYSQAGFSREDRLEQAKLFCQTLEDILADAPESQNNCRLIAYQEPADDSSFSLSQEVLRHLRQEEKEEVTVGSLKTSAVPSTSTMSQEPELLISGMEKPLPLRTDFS

[8] = tested on: influenza A virus (IAV) driven lung inflammation; assay: Influenza A virus infection in lung TGF-β1 transgenic mice; type: in vivo, mouse; details: 5 mg/kg daily from day 1 after IAV infection until day 3
[9] = tested on: STING signalling (STING, TBK1, IRF3, p-65); assay: Western blotting of DMXAA-stimulated immortalised mouse bone marrow derived macrophages; type: cell-based; details: 2.5 uM IDX 1 h
Method: FIG. 11: Immortalised mouse bone marrow derived macrophages were pre-treated for 1 hour with 2.5 uM IDX prior to stimulation for an indicated amount of time with DMXAA (50 ug/mL), and then lysed and analysed by Western blotting using specific total or phospho-antibody. The results on STING and p-STING are representative of 3 independent experiments.
Western Blotting: Following lysis in RIPA buffer supplemented with complete mini protease inhibitor cocktail (Sigma #4693124001) and phosSTOP inhibitor (Sigma #4906845001), the samples were subjected to SDS-Page analyses, on NuPAGE 4%-12% Bis-Tris Protein Gels (Thermo Scientific) with MES or MOPS running buffer (Thermo Scientific), as previously reported (4). Anti-Sting (#13647), Phospho-Sting (#72971), TBK1 (#3013), phospho-TBK1 (#5483), IKKe (#3416), phospho-IKKe (#8766), IRF-3 (#4302), phosphor-IRF3 (#4947), p-65 (#4764), phospho-p-65 (#3033) antibodies were all from Cell Signalling. Anti-beta-Actin antibodies (#Ab49900) were from Abcam.
To further determine the direct activity of IDX on STING, immortalised mouse bone marrow derived macrophages were stimulated with DMXAA for 1, 2 or 3 hours in the presence of IDX (FIG. 11). The cell lysates were analysed by Western blotting using specific total or phospho-antibody against STING, TBK1, IRF3, and p-65 (FIG. 11). In support of its inhibitory activity on downstream STING signaling, IDX decreased phosphorylation of TBK1 and IRF3 and also STING itself. […] While these effects could all be dependent on TBK1 inhibition by IDX, the inventors also observed decreased p-65 phosphorylation that was not dependent on TBK1 in this cell system (4).

[10] = tested on: basal STING signalling in Trex1-mutant mice; type: in vivo, mouse; details: 2 mg/kg i.p. daily for 10 days
[11] = tested on: basal Sting signalling; assay: Interferon stimulated genes in primary BMDMs from Trex1-mutant mice (RT-qPCR); details: overnight 1.25 and 2.5 μM IDX
[12] = tested on: human STING (PBMCs); assay: STING agonist-induced IL-6 and TNFα in human PBMCs; details: PBMCs from two donors, 2.5 μM IDX pre-treatment, GSK STING agonist 100 nM 6 hours
Method: The supernatants were collected and analysed for IL-6 and TNFα production by ELISA. Data shown are as average from 2 independent donors (conducted with biological replicate for each donor), ±SEM.
Similarly, human IP-10, TNF-α and IL-6 production was measured in cell supernatants using human IP-10 OptEIA ELISA kit (BD Biosciences, #555157), human OptEIA TNF-α kit (BD Bioscience, #555212) and human IL-6 OptEIA ELISA Set (BD Biosciences, #555220). Tetramethylbenzidine substrate (ThermoFisher Scientific) was used for quantification of the cytokines on a Fluostar OPTIMA (BMG LABTECH) plate-reader.

[13] = tested on: cGAS/STING (mouse STING-mCherry), IFN-β-luciferase reporter; assay: IFN-β-luciferase reporter in HEK-Sting cells overexpressing cGAS-GFP; details: different doses overnight
Method: FIG. 1: Human HEK cells constitutively expressing mouse STING-mCherry were co-transfected with cGAS-GFP and an interferon (IFN)beta-luciferase (A) or an NF-κB-Luc reporter (B) reporter for 3 h prior to being treated overnight with indicated concentration of IDX (in equal volume of DMSO). Firefly luciferase was quantified the next day. Data shown are averaged from 2 (B) or 3 (A) independent experiments in biological triplicate, relative to DMSO only condition control (±SEM).
Cell culture and reagents.
Cell transfections: HEK Sting cells were reverse transfected with 200 ng of IFNb-Luciferase reporter and 400 ng of cGAS-GFP overexpression vector, using 1.8 ul lipofectamine 2000 and ˜600,000 cells, per well of a 96 well plate (as previously reported (8)). After 3 h, the cells were collected and aliquoted in 12 wells of a 96 well plate (for each well of a 6 well plate), and treated with indicated doses of IDX overnight, prior lysis in 40 ul of Glo lysis buffer the next day (Promega). Luciferase assays were carried out using the Promega Luciferase Assay System on a on a Fluostar OPTIMA (BMG LABTECH) plate-reader.

## CCc1ccc(NC(=O)Nc2c[nH]c3ccccc23)cc1 [H151, reference compound]
[1]
  CPT-induced IL-6 production: strongly reduced
[2]
  IL-6 production, LPS stimulation: only modestly reduced
[3]
  IL-6 production, PolyI:C stimulation: only modestly reduced

## Oc1ccc(C2=Cc3ccc(O)cc3OC2)cc1 [IDX, 2H-1-Benzopyran-7-0,1,3-(4-hydroxyphenyl)]
[4]
  effect of increasing DMXAA on inhibition of ISRE-Luc: did not reverse the inhibition
[5]
  impact on cell proliferation: little impact
[6]
  activity of fresh versus frozen IDX stock: did not show any difference of activity
[7]; ADU-S100 30 uM 6 hours
  IP-10 production driven by ADU-S100: strongly inhibited
[7]; GSK agonist 100 nM 6 hours
  IP-10 production driven by synthetic STING agonist (GSK): strongly inhibited
[7]; synthetic STING agonist (GSK) 100 nM 6 hours, IFNβ ELISA
  reduction of IFNβ production: ~50%
[1]
  CPT-induced IL-6 production: significantly reduced
[8]
  IL-6 in bronchial alveolar lavages: significantly reduce
[9]; DMXAA 50 ug/mL 1, 2 or 3 hours
  p-65 phosphorylation: decreased
  phosphorylation of IRF3: decreased
  phosphorylation of STING: decreased
  phosphorylation of TBK1: decreased
[9]; DMXAA 50 ug/mL, 3-hour period
  shift in size of total STING (STING activation): attenuated
[10]
  Ifi44 expression in the spleen: decreased
  Ifih1 expression in the spleen: decreased
  Isg15 expression in the spleen: significant decreased
  Rsad2 expression in the spleen: decreased
[10]; compared to PBS controls
  serum TNFα levels: decrease
[11]
  Ifih1 expression: dose-dependent inhibition
  Ifit1 expression: dose-dependent inhibition
  Rsad2 expression: dose-dependent inhibition
[12]
  IL-6 production: reduced
  TNFα production: reduced
[13]
  inhibition of IFN-β-luciferase: potent inhibitor
[2]
  IL-6 production, LPS stimulation: only modestly reduced
[3]
  IL-6 production, PolyI:C stimulation: only modestly reduced

## CC(=O)Oc1ccccc1C(=O)O [aspirin]
[1]
  CPT-induced IL-6 production: strongly reduced
